Here are results for 7 compounds from ChEMBL document CHEMBL5303573, “Mapping human microbiome drug metabolism by gut bacteria and their genes” (Nature, 2019).

Molecules are shown by their SMILES.

Data set [1] in a line: The drug is tested on Ruminococcus lactaris strain: ATCC29176 for biotransformation. The drug concentrations were measured before and after a 12-h incubation by liquid-chromatography-coupled mass spectrometry (LC–MS). The conditions noted are these: 2 µM.
The nature of data set [2]: The drug is tested on Edwardsiella tarda strain: ATCC23685 for biotransformation. The drug concentrations were measured before and after a 12-h incubation by liquid-chromatography-coupled mass spectrometry (LC–MS). The conditions noted are these: 2 µM.
Data set [3] in a line: The drug is tested on Clostridium ramosum strain: DSM1402 for biotransformation. The drug concentrations were measured before and after a 12-h incubation by liquid-chromatography-coupled mass spectrometry (LC–MS). The conditions noted are these: thomasclavelia ramosa, 2 µM.
Data set [4] in a line: The drug is tested on Bacteroides fragilis strain: HMW615 for biotransformation. The drug concentrations were measured before and after a 12-h incubation by liquid-chromatography-coupled mass spectrometry (LC–MS). The conditions noted are these: 2 µM.
The nature of data set [5]: The drug is tested on Bacteroides sp. WH2 strain: WH2 for biotransformation. The drug concentrations were measured before and after a 12-h incubation by liquid-chromatography-coupled mass spectrometry (LC–MS). The conditions noted are these: bacteroides sp. wh2, 12 h, 2 µM.
Data set [6] can be described thus: The drug is tested on Bacteroides xylanisolvens strain: DSM18836 for biotransformation. The drug concentrations were measured before and after a 12-h incubation by liquid-chromatography-coupled mass spectrometry (LC–MS). The conditions noted are these: 2 µM.
Data set [7] in a line: The drug is tested on Ruminococcus gnavus strain: ATCC29149 for biotransformation. The drug concentrations were measured before and after a 12-h incubation by liquid-chromatography-coupled mass spectrometry (LC–MS). The conditions noted are these: mediterraneibacter gnavus, 2 µM.
The conditions of data set [8]: roseburia intestinalis, 12 h, 2 µM.
Description: The drug is tested on Roseburia intestinalis strain: L1-82 for biotransformation. The drug concentrations were measured before and after a 12-h incubation by liquid-chromatography-coupled mass spectrometry (LC–MS)
A short description of data set [9]: The drug is tested on Dorea formicigenerans strain: ATCC27755 for biotransformation. The drug concentrations were measured before and after a 12-h incubation by liquid-chromatography-coupled mass spectrometry (LC–MS). The conditions noted are these: 2 µM.
Data set [10] is described as follows: The drug is tested on Clostridium sporogenes strain: ATCC15579 for biotransformation. The drug concentrations were measured before and after a 12-h incubation by liquid-chromatography-coupled mass spectrometry (LC–MS). The conditions noted are these: 2 µM.
The nature of data set [11]: The drug is tested on Eubacterium ventriosum strain: ATCC27560 for biotransformation. The drug concentrations were measured before and after a 12-h incubation by liquid-chromatography-coupled mass spectrometry (LC–MS). The conditions noted are these: 2 µM. Also on record: dose 2 uM, timepoint 0 vs 12 hours. Format: ADME.
Data set [12] in a line: The drug is tested on Ruminococcus torques strain: ATCC27756 for biotransformation. The drug concentrations were measured before and after a 12-h incubation by liquid-chromatography-coupled mass spectrometry (LC–MS). In kind it is ADME. Set-up: dose 2 uM, timepoint 0 vs 12 hours. The conditions noted are these: 2 µM.
Data set [13] can be described thus: The drug is tested on Anaerotruncus colihominis strain: DSM17241 for biotransformation. The drug concentrations were measured before and after a 12-h incubation by liquid-chromatography-coupled mass spectrometry (LC–MS). The conditions noted are these: 2 µM.
Data set [14] in a line: The drug is tested on Bifidobacterium breve strain: DSM20213 for biotransformation. The drug concentrations were measured before and after a 12-h incubation by liquid-chromatography-coupled mass spectrometry (LC–MS). The conditions noted are these: 2 µM.
The nature of data set [15]: The drug is tested on Blautia luti strain: DSM14534 for biotransformation. The drug concentrations were measured before and after a 12-h incubation by liquid-chromatography-coupled mass spectrometry (LC–MS). In kind it is ADME. Set-up: dose 2 uM, timepoint 0 vs 12 hours. The conditions noted are these: 2 µM.
For data set [16] the following is noted: bacteroides intestinalis, 12 h, 2 µM.
Description: The drug is tested on Bacteroides intestinalis strain: DSM17393 for biotransformation. The drug concentrations were measured before and after a 12-h incubation by liquid-chromatography-coupled mass spectrometry (LC–MS)
The conditions of data set [17]: limosilactobacillus reuteri cf48-3a, 12 h, 2 µM.
Description: The drug is tested on Lactobacillus reuteri CF48-3A strain: BEI HM-102 for biotransformation. The drug concentrations were measured before and after a 12-h incubation by liquid-chromatography-coupled mass spectrometry (LC–MS)
The conditions of data set [18]: bacteroides thetaiotaomicron, 12 h, 2 µM.
Description: The drug is tested on Bacteroides thetaiotaomicron strain: 3731 for biotransformation. The drug concentrations were measured before and after a 12-h incubation by liquid-chromatography-coupled mass spectrometry (LC–MS)
Data set [19] can be described thus: The drug is tested on Bacteroides fragilis strain: HMW610 for biotransformation. The drug concentrations were measured before and after a 12-h incubation by liquid-chromatography-coupled mass spectrometry (LC–MS). The conditions noted are these: 2 µM.

For the compound `CCOC(=O)[C@H](CCc1ccccc1)N[C@@H](C)C(=O)N1CCC[C@H]1C(=O)O.O=C(O)/C=C\C(=O)O` [ENALAPRIL MALEATE], the “Bacterial Biotransformation” value in data set [1] is listed as “Compound NOT metabolized”; in [2] it was “Compound NOT metabolized”; in [3], “Compound NOT metabolized”; in data set [4], “Compound NOT metabolized”; in [5], “Compound NOT metabolized”; in data set [6], “Compound metabolized”. The “Bacterial Biotransformation” value in [7], in data set [8], in data set [9], in data set [10], in [11] and in data set [12] was “Compound NOT metabolized” each time. Also, the “Bacterial Biotransformation” value in data set [13], in data set [14], in data set [15], in [16], in data set [17] and in [18] was “Compound NOT metabolized” in each case.

With `OCCN1CCN(CCCN2c3ccccc3Sc3ccc(C(F)(F)F)cc32)CC1` [FLUPHENAZINE], the “Bacterial Biotransformation” value was “Compound NOT metabolized” in data set [1]; “Compound NOT metabolized” in data set [2]; “Compound metabolized” in [3]; “Compound NOT metabolized” in data set [4]; “Compound NOT metabolized” in data set [5]; “Compound metabolized” in [6]. Moreover, the “Bacterial Biotransformation” value was “Compound NOT metabolized” in data set [7]; “Compound metabolized” in [8]; “Compound metabolized” in [9]; “Compound NOT metabolized” in [10]; “Compound metabolized” in [11]; “Compound NOT metabolized” in [12]. The “Bacterial Biotransformation” value in data set [14] is listed as “Compound NOT metabolized”; in data set [15] it was “Compound NOT metabolized”; in [16], “Compound metabolized”; in [17], “Compound metabolized”; in data set [18] it was “Compound metabolized”.

In the case of `CC1Cc2ccccc2N1NC(=O)c1ccc(Cl)c(S(N)(=O)=O)c1` (stereo not drawn) [INDAPAMIDE], the “Bacterial Biotransformation” value in data set [1], in data set [2], in data set [3], in data set [4], in data set [5] and in data set [6] was “Compound NOT metabolized” throughout. The “Bacterial Biotransformation” value in data set [7], in data set [8], in data set [9], in data set [10], in data set [12] and in data set [14] was “Compound NOT metabolized” in each case. The “Bacterial Biotransformation” value in data set [15], in data set [16] and in data set [18] was “Compound NOT metabolized” each time.

As to `CN1C(=O)CC(C)(c2ccccc2)C1=O` (stereo not drawn) [METHSUXIMIDE], the “Bacterial Biotransformation” value in data set [2], in [3], in data set [5], in data set [6], in data set [7] and in data set [9] was “Compound NOT metabolized” throughout. In addition, the “Bacterial Biotransformation” value in data set [10], in data set [11], in data set [12], in data set [13], in data set [14] and in data set [15] was “Compound NOT metabolized” throughout. The “Bacterial Biotransformation” value in data set [16] and in data set [18] was “Compound NOT metabolized” each time.

Regarding `CN1CCN2c3ccccc3Cc3ccccc3C2C1` (stereo not drawn) [MIANSERIN], the “Bacterial Biotransformation” value in data set [1], in data set [2], in data set [3], in data set [19], in [4] and in data set [5] was “Compound NOT metabolized” in each case. Further, the “Bacterial Biotransformation” value in data set [7], in data set [9], in data set [10], in [11], in data set [12] and in [13] was “Compound NOT metabolized” throughout. Also, the “Bacterial Biotransformation” value in [14], in [15], in data set [16], in data set [17] and in data set [18] was “Compound NOT metabolized” throughout.

As to `CN(C)C(=O)Oc1cccc([N+](C)(C)C)c1.[Br-]` [NEOSTIGMINE BROMIDE], the “Bacterial Biotransformation” value in data set [1], in [2], in data set [3], in [5], in data set [7] and in data set [8] was “Compound NOT metabolized” throughout. Also, the “Bacterial Biotransformation” value in data set [9], in data set [10], in data set [11], in data set [12], in data set [13] and in data set [14] was “Compound NOT metabolized” throughout. Also, the “Bacterial Biotransformation” value is listed as “Compound NOT metabolized” in data set [15], “Compound NOT metabolized” in data set [16], “Compound NOT metabolized” in data set [17] and “Compound metabolized” in [18].

Consider `CC(C)(C)N.CCC[C@H](N[C@@H](C)C(=O)N1[C@H](C(=O)O)C[C@@H]2CCCC[C@@H]21)C(=O)OCC` [PERINDOPRIL ERBUMINE], for which the “Bacterial Biotransformation” value in data set [1], in data set [2], in data set [3], in [5], in data set [6] and in data set [7] was “Compound NOT metabolized” in each case. Besides, the “Bacterial Biotransformation” value in [8], in [9], in [10], in data set [11], in data set [12] and in [13] was “Compound NOT metabolized” each time. Besides, the “Bacterial Biotransformation” value in [14], in data set [15], in data set [16] and in [17] was “Compound NOT metabolized” each time.
